Source: ChEMBL document CHEMBL4152374, “A new phenolic series of indenopyridinone as topoisomerase inhibitors: Design, synthesis, and structure-activity relationships” (Bioorg Med Chem, 2018)
Structures can show the parent of a compound that is named as a salt.

Key:
[1] = target: T1, DNA topoisomerase 1 (Homo sapiens) (UniProt P11387); assay: Inhibition of human topoisomerase 1 using supercoiled pBR322 plasmid DNA as substrate at 100 uM after 30 mins by agarose gel electrophoresis method relative to control
T1 sequence (whole entry): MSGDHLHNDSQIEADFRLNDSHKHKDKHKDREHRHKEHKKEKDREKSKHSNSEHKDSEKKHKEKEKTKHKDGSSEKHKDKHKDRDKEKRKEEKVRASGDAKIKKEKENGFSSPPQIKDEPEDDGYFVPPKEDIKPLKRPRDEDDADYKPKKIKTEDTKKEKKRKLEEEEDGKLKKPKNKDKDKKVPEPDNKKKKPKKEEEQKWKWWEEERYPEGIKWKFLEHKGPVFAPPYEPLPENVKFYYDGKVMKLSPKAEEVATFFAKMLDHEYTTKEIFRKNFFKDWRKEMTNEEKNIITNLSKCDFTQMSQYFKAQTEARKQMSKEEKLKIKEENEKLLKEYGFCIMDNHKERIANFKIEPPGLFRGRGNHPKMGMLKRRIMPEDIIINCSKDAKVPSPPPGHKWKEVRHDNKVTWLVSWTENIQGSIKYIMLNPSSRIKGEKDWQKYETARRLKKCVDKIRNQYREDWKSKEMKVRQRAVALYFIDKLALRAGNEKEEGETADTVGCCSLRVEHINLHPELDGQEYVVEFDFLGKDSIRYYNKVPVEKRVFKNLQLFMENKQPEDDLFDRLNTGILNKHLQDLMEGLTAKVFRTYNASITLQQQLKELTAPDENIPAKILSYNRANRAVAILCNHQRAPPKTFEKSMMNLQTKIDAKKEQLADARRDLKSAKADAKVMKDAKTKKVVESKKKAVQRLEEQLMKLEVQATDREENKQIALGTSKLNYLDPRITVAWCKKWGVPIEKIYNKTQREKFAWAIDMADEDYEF

[2] = target: T1, DNA topoisomerase 1 (Homo sapiens); assay: Inhibition of human topoisomerase 1 using supercoiled pBR322 plasmid DNA as substrate at 20 uM after 30 mins by agarose gel electrophoresis method relative to control
[3] = target: DNA topoisomerase 2-alpha (Homo sapiens) (UniProt P11388); assay: Inhibition of human topoisomerase 2-alpha using supercoiled pBR322 plasmid DNA as substrate at 100 uM after 30 mins by agarose gel electrophoresis method relative to control
[4] = target: DNA topoisomerase 2-alpha (Homo sapiens) (UniProt P11388); assay: Inhibition of human topoisomerase 2-alpha using supercoiled pBR322 plasmid DNA as substrate at 20 uM after 30 mins by agarose gel electrophoresis method relative to control
HCT-15 = assay: Antiproliferative activity against human HCT15 cells after 72 hrs by EZ-CYTOX reagent based assay; type: functional, cell-based; settings: HCT-15, 72 h
T47D = assay: Antiproliferative activity against human T47D cells after 72 hrs by EZ-CYTOX reagent based assay; type: functional, cell-based
HeLa = assay: Antiproliferative activity against human HeLa cells after 72 hrs by EZ-CYTOX reagent based assay; type: functional, cell-based
[5] = target: DNA topoisomerase 2-alpha (Homo sapiens) (UniProt P11388); assay: Inhibition of human topoisomerase 2-alpha using supercoiled pBR322 plasmid DNA as substrate at 100 uM after 30 mins by agarose gel electrophoresis method relative to etoposide
[6] = target: DNA topoisomerase 2-alpha (Homo sapiens) (UniProt P11388); assay: Inhibition of human topoisomerase 2-alpha using supercoiled pBR322 plasmid DNA as substrate at 20 uM after 30 mins by agarose gel electrophoresis method relative to etoposide
Calf thymus DNA = assay: Inhibition of EtBr binding to calf thymus DNA up to 40 uM by fluorescence spectroscopy; type: nucleic-acid assay; settings: Bos taurus

DNA topoisomerase 2-alpha (Homo sapiens), sequence (P11388 whole entry): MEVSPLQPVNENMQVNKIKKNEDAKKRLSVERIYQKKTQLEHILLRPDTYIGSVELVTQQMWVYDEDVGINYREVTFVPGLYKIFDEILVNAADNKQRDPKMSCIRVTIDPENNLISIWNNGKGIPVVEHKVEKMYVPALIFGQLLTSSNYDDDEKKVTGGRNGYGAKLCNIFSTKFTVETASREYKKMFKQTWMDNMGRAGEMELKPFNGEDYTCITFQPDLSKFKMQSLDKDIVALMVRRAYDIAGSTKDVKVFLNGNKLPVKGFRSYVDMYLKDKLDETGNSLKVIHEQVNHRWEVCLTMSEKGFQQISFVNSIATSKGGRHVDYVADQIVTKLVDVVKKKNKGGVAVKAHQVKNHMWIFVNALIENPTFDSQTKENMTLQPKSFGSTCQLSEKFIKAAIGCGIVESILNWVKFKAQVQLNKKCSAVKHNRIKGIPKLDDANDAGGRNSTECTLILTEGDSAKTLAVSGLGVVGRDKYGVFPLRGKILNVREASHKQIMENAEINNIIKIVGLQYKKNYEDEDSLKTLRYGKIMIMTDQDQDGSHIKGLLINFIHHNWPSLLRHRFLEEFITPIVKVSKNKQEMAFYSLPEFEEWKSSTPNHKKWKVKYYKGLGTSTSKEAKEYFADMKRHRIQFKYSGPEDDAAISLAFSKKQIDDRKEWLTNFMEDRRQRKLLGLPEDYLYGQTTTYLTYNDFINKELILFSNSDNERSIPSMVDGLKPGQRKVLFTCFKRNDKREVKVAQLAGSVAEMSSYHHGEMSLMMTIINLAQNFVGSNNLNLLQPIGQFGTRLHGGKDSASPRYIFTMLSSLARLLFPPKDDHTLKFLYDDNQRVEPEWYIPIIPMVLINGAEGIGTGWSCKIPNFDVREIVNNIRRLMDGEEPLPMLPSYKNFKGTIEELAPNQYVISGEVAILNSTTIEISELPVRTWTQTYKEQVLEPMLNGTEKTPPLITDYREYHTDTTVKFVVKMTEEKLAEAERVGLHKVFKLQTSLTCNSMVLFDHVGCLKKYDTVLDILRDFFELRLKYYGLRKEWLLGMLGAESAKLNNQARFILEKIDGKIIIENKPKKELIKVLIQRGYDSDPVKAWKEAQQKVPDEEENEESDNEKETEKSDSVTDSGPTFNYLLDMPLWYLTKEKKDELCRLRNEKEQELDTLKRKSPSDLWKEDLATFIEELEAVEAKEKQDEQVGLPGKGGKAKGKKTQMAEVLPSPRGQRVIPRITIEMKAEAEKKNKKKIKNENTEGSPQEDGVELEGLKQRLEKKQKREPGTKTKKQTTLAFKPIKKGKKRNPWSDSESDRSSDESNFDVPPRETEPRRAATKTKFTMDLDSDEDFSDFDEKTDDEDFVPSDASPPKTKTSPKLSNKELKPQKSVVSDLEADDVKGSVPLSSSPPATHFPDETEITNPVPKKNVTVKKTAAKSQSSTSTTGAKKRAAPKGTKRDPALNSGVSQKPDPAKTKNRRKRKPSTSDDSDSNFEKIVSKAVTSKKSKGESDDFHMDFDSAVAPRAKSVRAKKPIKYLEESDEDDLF

| Structure (SMILES) | inhibition [1] [%] | inhibition [2] [%] | inhibition [3] [%] | inhibition [4] [%] | fold change (FC) [5] | fold change (FC) [6] | inhibition (Calf thymus DNA) | IC50 (HCT-15) [µM] | IC50 (T47D) [µM] | IC50 (HeLa) [µM] |
| --- | --- | --- | --- | --- | --- | --- | --- | --- | --- | --- |
| O=C1c2ccccc2-c2nc(-c3cccc(O)c3)cc(-c3ccc(O)cc3)c21 | 42.6 | 35.4 | 100 | 93.7 | 1.33 to 1.42 | 1.88 to 1.89 | Dose-dependent effect | 9.51 | 1.54 | > 50 |
| O=C1c2ccccc2-c2nc(-c3cccc(O)c3)cc(-c3ccccc3O)c21 | 0 |  | 2.6 |  | 0.03 |  |  | 1.36 | 0.11 | 1.52 |
| O=C1c2ccccc2-c2nc(-c3ccccc3)cc(-c3ccccc3)c21 | 5.8 |  | 25 |  |  |  |  | > 50 | 6.5 | > 50 |
| COc1cccc2c1C(=O)c1c(O)c3c(c(O)c1C2=O)C[C@@](O)(C(=O)CO)C[C@@H]3O[C@H]1C[C@H](N)[C@H](O)[C@H](C)O1 [DOXORUBICIN HYDROCHLORIDE] |  |  |  |  |  |  |  |  | 0.31 | 1.5 |
| O=C1c2ccccc2-c2nc(-c3ccccc3O)cc(-c3cccc(O)c3)c21 | 0 |  | 86.5 | 12.8 | 1.15 to 1.23 | 0.26 |  | 6.09 | > 50 | 4.84 |
| O=C1c2ccccc2-c2nc(-c3ccccc3)cc(-c3cccc(O)c3)c21 | 7.4 |  | 9.3 |  | 0.12 |  |  | 2.48 | 1.18 | 2.24 |
| O=C1c2ccccc2-c2nc(-c3ccc(O)cc3)cc(-c3ccc(O)cc3)c21 | 0 |  | 100 | 30.5 | 1.33 to 1.42 | 0.61 |  | 1.87 | 0.37 | 4.72 |
| O=C1c2ccccc2-c2nc(-c3cccc(O)c3)cc(-c3cccc(O)c3)c21 | 25.7 |  | 68.9 | 20.8 | 0.98 | 0.47 |  | > 50 | 1.24 | > 50 |
| CC[C@@]1(O)C(=O)OCc2c1cc1n(c2=O)Cc2cc3ccccc3nc2-1 [CAMPTOTHECIN] |  |  |  |  |  |  |  | 0.05 |  | 1.37 |
| COc1cc([C@@H]2c3cc4c(cc3[C@@H](O[C@@H]3O[C@@H]5CO[C@@H](C)O[C@H]5[C@H](O)[C@H]3O)[C@H]3COC(=O)[C@H]23)OCO4)cc(OC)c1O [ETOPOSIDE] |  |  |  |  |  |  |  | 2.94 | 0.4 | 9.21 |
| O=C1c2ccccc2-c2nc(-c3cccc(O)c3)cc(-c3ccccc3)c21 | 0.5 |  | 22.5 |  | 0.32 |  |  | > 50 | > 50 | > 50 |
| O=C1c2ccccc2-c2nc(-c3ccccc3)cc(-c3ccccc3O)c21 | 0 |  | 23.8 |  | 0.32 |  |  | 2.32 | 1.33 | 2.58 |
| COc1cc(NS(C)(=O)=O)ccc1Nc1c2ccccc2nc2ccccc12 |  |  |  |  |  |  | Dose-dependent effect |  |  |  |
| O=C1c2ccccc2-c2nc(-c3ccccc3O)cc(-c3ccccc3O)c21 | 0 |  | 32.8 | 9.9 | 0.44 | 0.2 |  | > 50 | > 50 | > 50 |
| O=C1c2ccccc2-c2nc(-c3ccccc3O)cc(-c3ccccc3)c21 | 0 |  | 4.9 |  | 0.06 |  |  | > 50 | 10.5 | 31.7 |

Continued, in another order:

| inhibition [1] [%] | inhibition [2] [%] | inhibition [3] [%] | inhibition [4] [%] | fold change (FC) [5] | fold change (FC) [6] | inhibition (Calf thymus DNA) | Structure (SMILES) | IC50 (HCT-15) [µM] | IC50 (T47D) [µM] | IC50 (HeLa) [µM] |
| --- | --- | --- | --- | --- | --- | --- | --- | --- | --- | --- |
| 75.5 | 7.5 | 71.9 | 60.5 | 1.02 | 1.38 |  | O=C1c2ccccc2-c2nc(-c3ccc(O)cc3)cc(-c3cccc(O)c3)c21 | 1.96 | 1.49 | 4.32 |
| 60 | 0 | 72.8 | 12 | 1.04 | 0.27 |  | O=C1c2ccccc2-c2nc(-c3ccc(O)cc3)cc(-c3ccccc3O)c21 | 2.82 | 0.42 | 2.3 |
| 50 | 0 | 63.3 | 15.2 | 0.9 | 0.35 |  | O=C1c2ccccc2-c2nc(-c3ccccc3)cc(-c3ccc(O)cc3)c21 | > 50 | > 50 | > 50 |
| 81 | 0 | 21.5 |  |  |  |  | OC1c2ccccc2-c2nc(-c3ccccc3)cc(-c3ccccc3)c21 (configuration not stated) | > 50 | > 50 | > 50 |
| 20.1 |  | 55.1 | 17.8 |  |  |  | Oc1cccc(-c2cc(-c3cccc(O)c3)c3c(n2)-c2ccccc2C3O)c1 (configuration not stated) | 6.2 | 1.61 | 6.91 |
| 63.9 | 0 | 53.6 | 22.6 |  |  |  | Oc1ccc(-c2cc(-c3ccccc3)nc3c2C(O)c2ccccc2-3)cc1 (configuration not stated) | > 50 | 3.25 | > 50 |
| 11.5 |  | 57.7 | 12.1 |  |  |  | Oc1ccc(-c2cc(-c3ccccc3O)c3c(n2)-c2ccccc2C3O)cc1 (configuration not stated) | 13 | 4.28 | 10.8 |
| 0 |  | 5.2 |  | 0.07 |  |  | O=C1c2ccccc2-c2nc(-c3ccccc3O)cc(-c3ccc(O)cc3)c21 | > 50 | > 50 | > 50 |
| 0 |  | 23.3 |  | 0.31 |  |  | O=C1c2ccccc2-c2nc(-c3ccc(O)cc3)cc(-c3ccccc3)c21 | 2.18 | 1.4 | 2.25 |
| 71.9 | 61.7 | 60.9 | 26.7 |  |  |  | Oc1ccc(-c2cc(-c3cccc(O)c3)c3c(n2)-c2ccccc2C3O)cc1 (configuration not stated) | 9.76 | 1.7 | 7.08 |
| 0 |  | 40.7 | 0.3 |  |  |  | Oc1cccc(-c2cc(-c3ccccc3)c3c(n2)-c2ccccc2C3O)c1 (configuration not stated) | > 50 | > 50 | > 50 |
